Laboratory results reported in ChEMBL document CHEMBL1201862, “PubChem BioAssay data set” (2004).
Active and inactive are the calls of the source.

Experiments:
[1] = target: Mu-type opioid receptor (Homo sapiens, UniProt P35372); test: (§1) Counterscreen for agonists of heterodimerization of the mu 1 (OPRM1) and delta 1 (OPRD1) opioid receptors: Luminescence-based cell-based high throughput dose response assay to identify agonists of OPRM1 homodimerization.; format: functional
[2] = target: 5-hydroxytryptamine receptor 5A (Homo sapiens, UniProt P47898); test: Counterscreen for agonists of OPRM1-OPRD1 heterodimerization: luminescence-based cell-based high throughput dose response assay to identify agonists of 5-hydroxytryptamine (serotonin) 5A receptor (HTR5A). [Related pubchem assays (depositor defined):AID504326, AID504355, AID504692, AID504904, AID504905]; format: functional
[3] = target: T1, Short transient receptor potential channel 4 (Mus musculus, UniProt Q9QUQ5); test: mouse TRPC4 channel activators, dose response, cell-based, HEK293 TRPC4/mu-opioid, Fluo-4 calcium (AID 434937); format: functional
T1 sequence (Q9QUQ5 whole entry): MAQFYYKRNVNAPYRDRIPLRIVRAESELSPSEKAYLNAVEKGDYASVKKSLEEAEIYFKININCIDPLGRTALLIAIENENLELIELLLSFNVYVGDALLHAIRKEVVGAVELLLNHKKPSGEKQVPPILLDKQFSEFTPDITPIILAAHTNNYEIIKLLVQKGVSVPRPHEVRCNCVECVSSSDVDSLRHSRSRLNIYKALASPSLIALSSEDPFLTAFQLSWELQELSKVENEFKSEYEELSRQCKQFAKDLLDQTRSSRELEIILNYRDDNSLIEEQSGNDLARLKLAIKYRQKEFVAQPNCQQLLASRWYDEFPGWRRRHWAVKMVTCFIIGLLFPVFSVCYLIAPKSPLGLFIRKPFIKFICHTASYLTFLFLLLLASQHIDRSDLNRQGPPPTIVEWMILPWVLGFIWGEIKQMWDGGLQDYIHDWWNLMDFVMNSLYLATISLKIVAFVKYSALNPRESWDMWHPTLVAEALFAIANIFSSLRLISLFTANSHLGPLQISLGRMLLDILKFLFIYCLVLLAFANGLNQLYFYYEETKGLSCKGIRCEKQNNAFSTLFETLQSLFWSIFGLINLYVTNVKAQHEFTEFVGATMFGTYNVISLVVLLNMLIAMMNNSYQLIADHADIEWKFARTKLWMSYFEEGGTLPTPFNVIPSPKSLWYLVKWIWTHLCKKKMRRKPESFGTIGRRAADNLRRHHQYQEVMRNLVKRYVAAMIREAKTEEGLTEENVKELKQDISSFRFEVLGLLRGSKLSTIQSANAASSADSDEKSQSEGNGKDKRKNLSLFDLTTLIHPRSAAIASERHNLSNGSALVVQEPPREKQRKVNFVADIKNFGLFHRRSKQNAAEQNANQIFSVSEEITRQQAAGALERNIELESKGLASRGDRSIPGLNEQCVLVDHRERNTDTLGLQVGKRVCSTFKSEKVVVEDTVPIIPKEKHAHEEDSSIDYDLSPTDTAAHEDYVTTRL

[4] = target: T2, Corticotropin-releasing factor receptor 2/Corticotropin-releasing factor-binding protein (Homo sapiens, UniProt P24387+Q13324); test: Dose Response confirmation of uHTS hits for small molecule antagonists of the CRF-binding protein and CRF-R2 receptor complex.; format: functional; settings: read-out: IC50_Mean
T2 sequence (Q13324 whole entry): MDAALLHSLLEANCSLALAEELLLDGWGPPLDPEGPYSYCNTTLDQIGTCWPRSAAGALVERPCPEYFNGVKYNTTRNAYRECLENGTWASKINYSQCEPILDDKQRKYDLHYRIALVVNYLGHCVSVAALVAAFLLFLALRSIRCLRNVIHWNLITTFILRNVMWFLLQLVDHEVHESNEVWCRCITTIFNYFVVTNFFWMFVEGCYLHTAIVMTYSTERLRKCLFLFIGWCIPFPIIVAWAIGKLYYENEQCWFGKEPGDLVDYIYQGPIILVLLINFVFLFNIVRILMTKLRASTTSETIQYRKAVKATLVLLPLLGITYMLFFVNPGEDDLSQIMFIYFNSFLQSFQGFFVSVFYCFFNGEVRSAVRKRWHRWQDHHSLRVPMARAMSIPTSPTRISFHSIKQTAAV
T2 sequence (P24387 whole entry): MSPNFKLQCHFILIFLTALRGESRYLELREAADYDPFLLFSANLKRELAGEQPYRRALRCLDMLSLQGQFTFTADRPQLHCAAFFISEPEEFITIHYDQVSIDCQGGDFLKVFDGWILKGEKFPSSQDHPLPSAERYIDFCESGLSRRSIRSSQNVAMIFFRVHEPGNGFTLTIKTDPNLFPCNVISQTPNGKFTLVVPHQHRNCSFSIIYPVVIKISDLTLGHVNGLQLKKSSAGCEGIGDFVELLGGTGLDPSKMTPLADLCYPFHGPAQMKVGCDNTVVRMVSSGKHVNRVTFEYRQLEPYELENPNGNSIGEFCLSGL

[5] = target: T2, Corticotropin-releasing factor receptor 2/Corticotropin-releasing factor-binding protein; test: activators of CRF receptor 2 with binding protein – uHTS hits, confirmation (AID 602473); format: functional; settings: read-out: EC50_Mean
[6] = target: Delta-type opioid receptor (Homo sapiens, UniProt P41143); test: as §1, with “of OPRD1” for “of OPRM1”, “homodimerization. [Related pubchem assays (depositor defined):AID504326, AID504355, AID504692, AID504904, AID504905]” for “homodimerization.”; format: functional
[7] = target: T3, Caspase-3 (Homo sapiens, UniProt P42574); format: functional;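 note: Dose-response selectivity test against caspase-3 for candidate inhibitors of sentrin-specific proteases (SENPs)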
T3 sequence (P42574 whole entry): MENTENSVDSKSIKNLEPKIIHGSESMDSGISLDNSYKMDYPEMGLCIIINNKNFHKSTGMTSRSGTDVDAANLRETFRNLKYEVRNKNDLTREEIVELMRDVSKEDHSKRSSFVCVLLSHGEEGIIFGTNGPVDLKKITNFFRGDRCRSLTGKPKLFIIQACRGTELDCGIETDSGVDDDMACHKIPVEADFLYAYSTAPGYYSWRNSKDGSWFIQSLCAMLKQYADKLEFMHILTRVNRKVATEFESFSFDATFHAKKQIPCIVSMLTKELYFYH

[8] = target: T4, Sentrin-specific protease 8 (Homo sapiens, UniProt Q96LD8); format: functional;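 note: luminescence read-out of SENP8 inhibition, dose-response confirmation following an ultra-high-throughput screen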
T4 sequence (Q96LD8 whole entry): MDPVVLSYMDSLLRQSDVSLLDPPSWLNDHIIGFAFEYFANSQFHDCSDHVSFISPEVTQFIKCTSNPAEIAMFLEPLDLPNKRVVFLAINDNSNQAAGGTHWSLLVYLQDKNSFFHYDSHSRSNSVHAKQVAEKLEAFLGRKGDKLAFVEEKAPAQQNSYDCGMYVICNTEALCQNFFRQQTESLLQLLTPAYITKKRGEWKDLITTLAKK

[9] = target: T5, Sentrin-specific protease 7 (Homo sapiens, UniProt Q9BQF6); format: functional;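 note: Luminescence-based dose-response confirmation of ultra-high-throughput screening hits, measuring inhibition of SENP7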
T5 sequence (Q9BQF6 whole entry): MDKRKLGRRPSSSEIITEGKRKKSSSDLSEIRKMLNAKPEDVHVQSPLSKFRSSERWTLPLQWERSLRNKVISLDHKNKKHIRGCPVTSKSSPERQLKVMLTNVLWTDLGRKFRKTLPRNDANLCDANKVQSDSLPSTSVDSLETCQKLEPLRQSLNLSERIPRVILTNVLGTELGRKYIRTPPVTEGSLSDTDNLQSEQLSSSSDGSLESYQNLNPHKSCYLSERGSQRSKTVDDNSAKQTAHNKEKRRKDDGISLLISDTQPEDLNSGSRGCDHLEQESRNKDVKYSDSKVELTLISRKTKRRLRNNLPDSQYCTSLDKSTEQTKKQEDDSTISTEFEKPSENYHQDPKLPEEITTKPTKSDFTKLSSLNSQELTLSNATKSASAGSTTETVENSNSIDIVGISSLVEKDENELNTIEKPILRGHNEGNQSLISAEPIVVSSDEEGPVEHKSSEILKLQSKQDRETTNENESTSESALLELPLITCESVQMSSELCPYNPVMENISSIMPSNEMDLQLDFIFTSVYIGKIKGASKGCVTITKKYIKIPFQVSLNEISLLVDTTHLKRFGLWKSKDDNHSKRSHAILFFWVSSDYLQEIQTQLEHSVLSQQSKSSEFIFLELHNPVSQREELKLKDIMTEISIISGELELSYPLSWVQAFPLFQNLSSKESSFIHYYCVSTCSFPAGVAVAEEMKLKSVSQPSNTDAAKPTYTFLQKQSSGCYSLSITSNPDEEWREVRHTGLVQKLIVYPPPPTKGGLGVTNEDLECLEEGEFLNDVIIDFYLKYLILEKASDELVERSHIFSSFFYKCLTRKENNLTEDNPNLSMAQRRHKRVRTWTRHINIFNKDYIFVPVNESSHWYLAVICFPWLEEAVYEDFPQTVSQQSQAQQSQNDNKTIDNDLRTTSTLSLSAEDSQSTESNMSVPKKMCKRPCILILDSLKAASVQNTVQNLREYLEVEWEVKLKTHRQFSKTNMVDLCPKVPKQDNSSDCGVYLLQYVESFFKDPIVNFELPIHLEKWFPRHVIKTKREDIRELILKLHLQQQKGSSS

[10] = target: T6, Sentrin-specific protease 6 (Homo sapiens, UniProt Q9GZR1); format: functional;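 note: Luminescence-based dose-response confirmatory assay of SENP6 inhibition, following up an ultra-high-throughput screen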
T6 sequence (Q9GZR1 whole entry): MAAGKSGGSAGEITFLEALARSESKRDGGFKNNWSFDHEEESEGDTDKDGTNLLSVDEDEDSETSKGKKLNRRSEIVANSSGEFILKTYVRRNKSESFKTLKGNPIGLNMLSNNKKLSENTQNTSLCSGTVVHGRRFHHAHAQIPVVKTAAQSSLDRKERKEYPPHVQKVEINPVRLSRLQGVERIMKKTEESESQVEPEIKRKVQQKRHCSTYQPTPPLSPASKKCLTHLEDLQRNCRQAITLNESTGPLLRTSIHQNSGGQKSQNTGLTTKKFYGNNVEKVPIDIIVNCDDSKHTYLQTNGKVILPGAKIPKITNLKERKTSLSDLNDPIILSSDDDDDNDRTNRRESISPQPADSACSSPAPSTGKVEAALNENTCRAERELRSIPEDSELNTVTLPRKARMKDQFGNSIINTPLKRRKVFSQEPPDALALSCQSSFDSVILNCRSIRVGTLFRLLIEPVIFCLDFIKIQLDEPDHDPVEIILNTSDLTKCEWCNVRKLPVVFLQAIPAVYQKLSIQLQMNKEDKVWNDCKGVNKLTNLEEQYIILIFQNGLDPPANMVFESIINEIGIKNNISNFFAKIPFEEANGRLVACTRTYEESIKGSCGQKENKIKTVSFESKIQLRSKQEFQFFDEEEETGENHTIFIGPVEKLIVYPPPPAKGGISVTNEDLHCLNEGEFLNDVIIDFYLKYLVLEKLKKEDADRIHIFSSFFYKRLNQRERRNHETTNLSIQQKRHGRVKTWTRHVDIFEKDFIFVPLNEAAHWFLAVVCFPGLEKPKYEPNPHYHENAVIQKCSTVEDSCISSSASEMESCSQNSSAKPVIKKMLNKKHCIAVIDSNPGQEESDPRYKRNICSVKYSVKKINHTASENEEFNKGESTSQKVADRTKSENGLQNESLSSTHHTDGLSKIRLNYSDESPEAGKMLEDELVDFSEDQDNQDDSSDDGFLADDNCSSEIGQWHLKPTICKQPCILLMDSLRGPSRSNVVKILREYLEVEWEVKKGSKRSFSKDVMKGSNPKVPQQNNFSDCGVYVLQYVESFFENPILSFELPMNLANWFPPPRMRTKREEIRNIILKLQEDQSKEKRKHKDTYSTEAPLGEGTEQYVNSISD

[11] = HEp-2 cell cytotoxicity, dose response, cytotoxicity control for RSV inhibitor project, HTS (AID 2410); format: functional; settings: human respiratory syncytial virus
[12] = cells
[13] = target: Cytochrome P450 3A4 (Homo sapiens, UniProt P08684);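 note: CYP3A4 tested as one member of a cytochrome P450 panel screen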
[14] = target: T7, Probable nicotinate-nucleotide adenylyltransferase (Staphylococcus aureus (strain N315), UniProt P65502); format: functional, Staphylococcus aureus subsp. aureus N315; settings: read-out: IC50_Mean;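 for IC50 Mean: confirmatory dose-response retesting of NadD inhibitor hits first found in an ultra-high-throughput screen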
[15] = target: T7, Probable nicotinate-nucleotide adenylyltransferase; format: functional, Staphylococcus aureus subsp. aureus N315
[16] = target: T8, Carboxy-terminal domain RNA polymerase II polypeptide A small phosphatase 1 (Homo sapiens, UniProt Q9GZU7); test: inhibitors of CTDSP1, concentration-response testing, biochemical assay, absorbance-based, actives from ultra-high-throughput screening (AID 540297); format: functional
T8 sequence (Q9GZU7 whole entry): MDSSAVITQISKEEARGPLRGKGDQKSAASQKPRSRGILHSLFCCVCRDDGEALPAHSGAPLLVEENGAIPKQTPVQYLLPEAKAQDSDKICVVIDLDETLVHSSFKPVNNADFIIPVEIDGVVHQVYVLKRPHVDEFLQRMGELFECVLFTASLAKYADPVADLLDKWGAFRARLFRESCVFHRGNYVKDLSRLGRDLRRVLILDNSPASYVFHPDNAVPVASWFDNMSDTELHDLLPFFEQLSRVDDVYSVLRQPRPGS

Sequence of Mu-type opioid receptor (P35372 whole entry): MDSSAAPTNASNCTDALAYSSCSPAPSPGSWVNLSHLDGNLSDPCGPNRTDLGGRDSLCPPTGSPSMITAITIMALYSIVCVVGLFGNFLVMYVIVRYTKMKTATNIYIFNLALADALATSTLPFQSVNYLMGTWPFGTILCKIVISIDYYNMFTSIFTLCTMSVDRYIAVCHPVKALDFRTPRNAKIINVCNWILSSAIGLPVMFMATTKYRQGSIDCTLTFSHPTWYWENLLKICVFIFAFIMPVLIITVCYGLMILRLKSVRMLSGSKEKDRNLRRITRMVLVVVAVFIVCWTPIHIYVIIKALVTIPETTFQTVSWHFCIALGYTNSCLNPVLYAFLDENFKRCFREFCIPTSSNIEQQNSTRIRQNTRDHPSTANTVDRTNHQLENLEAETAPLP
Sequence of 5-hydroxytryptamine receptor 5A (P47898 whole entry): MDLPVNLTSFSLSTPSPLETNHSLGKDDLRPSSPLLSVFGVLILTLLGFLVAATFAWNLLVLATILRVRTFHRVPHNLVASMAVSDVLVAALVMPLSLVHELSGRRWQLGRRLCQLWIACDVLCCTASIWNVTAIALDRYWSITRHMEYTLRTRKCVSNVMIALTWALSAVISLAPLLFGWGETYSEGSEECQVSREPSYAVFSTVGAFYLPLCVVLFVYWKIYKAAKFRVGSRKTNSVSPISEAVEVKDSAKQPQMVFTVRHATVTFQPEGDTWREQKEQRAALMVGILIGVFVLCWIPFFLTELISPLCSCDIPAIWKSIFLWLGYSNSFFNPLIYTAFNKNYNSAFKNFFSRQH
Sequence of Delta-type opioid receptor (P41143 whole entry): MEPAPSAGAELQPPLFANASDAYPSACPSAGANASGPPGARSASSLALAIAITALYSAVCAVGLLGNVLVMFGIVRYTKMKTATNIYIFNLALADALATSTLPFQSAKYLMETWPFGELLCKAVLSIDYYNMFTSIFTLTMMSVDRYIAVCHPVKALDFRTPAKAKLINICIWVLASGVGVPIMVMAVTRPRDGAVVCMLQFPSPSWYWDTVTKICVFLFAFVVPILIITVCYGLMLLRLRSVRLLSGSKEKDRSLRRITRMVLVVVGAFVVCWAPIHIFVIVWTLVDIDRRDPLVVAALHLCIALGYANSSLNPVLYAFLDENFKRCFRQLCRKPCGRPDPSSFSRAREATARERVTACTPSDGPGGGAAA
Sequence of Cytochrome P450 3A4 (P08684 whole entry): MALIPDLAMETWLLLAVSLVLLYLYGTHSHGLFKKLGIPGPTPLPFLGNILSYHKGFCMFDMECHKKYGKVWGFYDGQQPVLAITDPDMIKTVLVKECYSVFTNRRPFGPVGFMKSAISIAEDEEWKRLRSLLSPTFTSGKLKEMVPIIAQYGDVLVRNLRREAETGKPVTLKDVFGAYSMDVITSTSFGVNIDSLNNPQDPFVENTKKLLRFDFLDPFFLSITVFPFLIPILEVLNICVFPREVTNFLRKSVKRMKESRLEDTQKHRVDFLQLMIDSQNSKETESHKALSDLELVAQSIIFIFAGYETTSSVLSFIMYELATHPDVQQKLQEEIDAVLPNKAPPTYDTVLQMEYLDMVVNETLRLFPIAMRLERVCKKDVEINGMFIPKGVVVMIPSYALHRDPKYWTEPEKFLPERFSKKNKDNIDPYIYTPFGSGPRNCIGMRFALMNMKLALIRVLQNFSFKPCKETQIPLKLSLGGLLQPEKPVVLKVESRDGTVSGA

IC50 [7] | IC50 [9] | IC50 [10] | Compound | IC50 [8] | also measured
– | – | – | COc1ccc(-c2nn(-c3ccccc3C)cc2CNCc2cccnc2)cc1F | – | EC50 [1]: > 92.5 µM (inactive); EC50 [2]: > 92.5 µM (inactive); EC50 [3]: 3.76 µM (active); IC50 [4]: > 47.1 µM (inactive); EC50 [5]: > 53 µM (inactive); EC50 [6]: > 92.5 µM (inactive)
26.8 µM (active) | 24.2 µM (active) | 14.9 µM (active) | CC(C)CSC1=NSC2=NC(=O)/C(=C\c3cccs3)C(=N)N12 | 18.5 µM (active) | –
59.7 µM (active) | 4.87 µM (active) | 15 µM (active) | Oc1c(-c2cc(-c3ccco3)[nH]n2)ccc2ccccc12 | 19.3 µM (active) | –
4.06 µM (active) | 4.62 µM (active) | 6.55 µM (active) | C/C(=N\NC(=O)c1ccc(Br)cc1)c1ccccc1 | > 100 µM (inactive) | AC50 [13]: 15.8 µM (inconclusive)
– | – | – | O=C(O)Cc1sc(N/N=C\c2ccccc2)nc1-c1ccccc1 | – | IC50 [14]: 27.7 µM (active); IC50 [15]: 9.86 µM (active); IC50 [16]: 5.14 µM (active)

Compound | IC50 [7] | IC50 [9] | IC50 [10] | IC50 [8] | also measured
O=C(COc1ccc2ccccc2c1)Nc1ccccc1C(=O)O | 15.2 µM (active) | 13.4 µM (active) | 25.5 µM (active) | 43.4 µM (active) | CC50 [11]: 32.9 µM (active); IC50 [12]: 41.5 µM (active)
